Assay [1] has as its system Cnaphalocrocis medinalis. As to the kind of experiment: Antifeedant activity against 4 hr starved fifth-instar larval stage of Cnaphalocrocis medinalis infested compound-treated rice leaves assessed as approximate digestibility at 1 ppm measured every 24 hr for 4 days by gravimetric method (reference value: 44.81 +/- 4.12%). It counts as functional.
The subject of assay [2] is Cnaphalocrocis medinalis. Description: Antifeedant activity against 4 hr starved fifth-instar larval stage of Cnaphalocrocis medinalis infested compound-treated rice leaves assessed as relative consumption rate at 1 ppm measured every 24 hr for 4 days by gravimetric method (reference value: 0.524 +/- 0.03 mg/mg/day). The assay is classed as functional.
Assay [3] has as its system Cnaphalocrocis medinalis. As to the kind of experiment: Antifeedant activity against 4 hr starved fifth-instar larval stage of Cnaphalocrocis medinalis infested compound-treated rice leaves assessed as efficacy of conversion of digested food at 1 ppm measured every 24 hr for 4 days by gravimetric method (reference value: 46.45 +/- 4.12%). It counts as functional.
The subject of assay [4] is Cnaphalocrocis medinalis. As to the kind of experiment: Antifeedant activity against 4 hr starved fifth-instar larval stage of Cnaphalocrocis medinalis infested compound-treated rice leaves assessed as efficacy of conversion of ingested food at 1 ppm measured every 24 hr for 4 days by gravimetric method (reference value: 20.81 +/- 1.58%). It counts as functional.
In assay [5] the test system is Cnaphalocrocis medinalis. Description: Antifeedant activity against 4 hr starved fifth-instar larval stage of Cnaphalocrocis medinalis infested compound-treated rice leaves assessed as relative growth rate at 1 ppm measured every 24 hr for 4 days by gravimetric method (reference value: 0.524 +/- 0.03 mg/mg/day). It counts as functional.
Assay [6] relates to Cnaphalocrocis medinalis. Description: Antifeedant activity against 4 hr starved fifth-instar larval stage of Cnaphalocrocis medinalis infested compound-treated rice leaves assessed as consumption index at 1 ppm measured every 24 hr for 4 days by gravimetric method (reference value: 2.52 +/- 0.15 mg/mg/day). The assay is classed as functional.
For assay [7], the system named is Cnaphalocrocis medinalis. As to the kind of experiment: Antifeedant activity against 4 hr starved fifth-instar larval stage of Cnaphalocrocis medinalis infested compound-treated rice leaves assessed as reduction in diet consumption after 12 hr by leaf cut-choice assay. The assay is classed as functional, organism-based.
In assay [8] the test system is Cnaphalocrocis medinalis. As to the kind of experiment: Antifeedant activity against 4 hr starved fifth-instar larval stage of Cnaphalocrocis medinalis infested compound-treated rice leaves assessed as feeding deterrence index at 2 ppm after 12 hr by leaf cut-choice assay (reference value: 0.05 +/- 0.003%). The assay is classed as functional.

Turning to `CC(=O)O[C@@H]1C[C@H]2C(C)(C)C(=O)C=C[C@]2(C)[C@H]2CC[C@]3(C)C(=CC(=O)[C@@]3(O)c3ccoc3)[C@@]21C` [17-HYDROXYAZADIRADIONE], the Activity in the assay with Cnaphalocrocis medinalis [1] is 47.217%; with Cnaphalocrocis medinalis [2], 0.957 mg/mg/day; with Cnaphalocrocis medinalis [3] it was 38.657%; in the assay with Cnaphalocrocis medinalis [5], 0.4197 mg/mg/day; with Cnaphalocrocis medinalis [6], 2.307 mg/mg/day; in the assay on Cnaphalocrocis medinalis [7], “Dose-dependent effect”. For the same compound, the ECI in the assay on Cnaphalocrocis medinalis [4] is recorded as 18.247%. The FDI in the assay with Cnaphalocrocis medinalis [8] stood at 23.6%.

Turning to `CC1(C)C(=O)C=C[C@]2(C)[C@H]3CC[C@@]4(C)[C@H](c5ccoc5)OC(=O)[C@H]5O[C@]54[C@]3(C)[C@H](O)C[C@@H]12` [DEACETYLGEDUNIN], the Activity in the assay with Cnaphalocrocis medinalis [1] was 48.457%; in the assay with Cnaphalocrocis medinalis [2] it was 0.927 mg/mg/day; in the assay on Cnaphalocrocis medinalis [3], 36.127%; in the assay on Cnaphalocrocis medinalis [5], 0.3857 mg/mg/day; with Cnaphalocrocis medinalis [6] it was 2.207 mg/mg/day; with Cnaphalocrocis medinalis [7], “Dose-dependent effect”. Also, the ECI in the assay on Cnaphalocrocis medinalis [4] amounted to 17.507%. The FDI in the assay with Cnaphalocrocis medinalis [8] came to 23.6%.

For `C/C=C(\C)C(=O)O[C@H]1C[C@@H](OC(C)=O)[C@@]2(C(=O)OC)CO[C@H]3[C@@H](O)[C@@](C)([C@]45O[C@@]4(C)[C@@H]4C[C@H]5O[C@@H]5OC=C[C@@]54O)[C@H]4[C@]1(CO[C@]4(O)C(=O)OC)[C@@H]32` [AZADIRACHTIN A], the Activity is 52.717% with Cnaphalocrocis medinalis [1]; 0.187 mg/mg/day with Cnaphalocrocis medinalis [2]; 12.357% in the assay with Cnaphalocrocis medinalis [3]; 0.0277 mg/mg/day in the assay on Cnaphalocrocis medinalis [5]; 0.427 mg/mg/day in the assay with Cnaphalocrocis medinalis [6]; “Dose-dependent effect” in the assay on Cnaphalocrocis medinalis [7]. Besides, the ECI with Cnaphalocrocis medinalis [4] came out at 6.507%. For the same compound, the FDI in the assay with Cnaphalocrocis medinalis [8] came out at 93.2%.

For `C/C=C(/C)C(=O)O[C@H]1C[C@@H](OC(C)=O)[C@@]2(C)CO[C@H]3[C@H]4O[C@@H]5C[C@@H](c6ccoc6)C(C)=C5[C@@]4(C)[C@H](CC(=O)OC)[C@]1(C)[C@@H]32` [SALANNIN], the Activity is 49.617% with Cnaphalocrocis medinalis [1]; 0.557 mg/mg/day in the assay on Cnaphalocrocis medinalis [2]; 33.527% in the assay with Cnaphalocrocis medinalis [3]; 0.2577 mg/mg/day in the assay on Cnaphalocrocis medinalis [5]; 1.557 mg/mg/day in the assay on Cnaphalocrocis medinalis [6]; “Dose-dependent effect” in the assay on Cnaphalocrocis medinalis [7]. Moreover, the ECI in the assay on Cnaphalocrocis medinalis [4] amounted to 16.627%. The FDI in the assay on Cnaphalocrocis medinalis [8] is 49.6%.

`COC(=O)C[C@H]1[C@]2(C)C3=C(C)[C@H](c4ccoc4)C[C@H]3O[C@@H]2[C@H](O)[C@@H]2[C@]1(C)C(=O)C=C[C@@]2(C)C(=O)OC` [DEACETYLNIMBIN]: the Activity is 46.747% with Cnaphalocrocis medinalis [1]; 0.957 mg/mg/day with Cnaphalocrocis medinalis [2]; 39.117% in the assay with Cnaphalocrocis medinalis [3]; 0.4247 mg/mg/day with Cnaphalocrocis medinalis [5]; 2.327 mg/mg/day in the assay on Cnaphalocrocis medinalis [6]; “Dose-dependent effect” in the assay on Cnaphalocrocis medinalis [7]. Besides, the ECI in the assay on Cnaphalocrocis medinalis [4] was determined as 18.287%. In addition, the FDI in the assay with Cnaphalocrocis medinalis [8] is recorded as 21%.

On to `CC(=O)O[C@@H]1C[C@H]2C(C)(C)C(=O)C=C[C@]2(C)[C@H]2CC[C@@]3(C)[C@H](c4ccoc4)OC(=O)[C@H]4O[C@]43[C@@]21C` [GEDUNIN], for which the Activity in the assay on Cnaphalocrocis medinalis [1] is 46.457%; in the assay on Cnaphalocrocis medinalis [2], 1.007 mg/mg/day; in the assay with Cnaphalocrocis medinalis [3], 43.157%; in the assay on Cnaphalocrocis medinalis [5], 0.4707 mg/mg/day; in the assay on Cnaphalocrocis medinalis [6], 2.357 mg/mg/day; with Cnaphalocrocis medinalis [7] it was “Dose-dependent effect”. Moreover, in the assay on Cnaphalocrocis medinalis [4], the ECI turned out to be 20.07%. In the assay with Cnaphalocrocis medinalis [8], the FDI worked out at 18.8%.

Source of the values: ChEMBL document CHEMBL3046516, “Efficacy of neem limonoids on Cnaphalocrocis medinalis (Guenee) (Lepidoptera: Pyralidae) the rice leaffolder” (2005).
